Measured values taken from US12195427B2, “MASP-2 inhibitors and methods of use” (priority 2018, dated 2025).
Counter-ions that a name gives are not always drawn.

Target: MASP-2 CCP2-SP (Homo sapiens (Human), UniProt O00187)
Test: MASP-2 co-crystallization, X-ray crystallography and structure analysis (H-bonds, van der Waals contacts);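 for Ligand-pharmacophore element distance, pharmacophore element C2: distance from averaged pharmacophore element to bound ligand; missing value means element absent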;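 for Ligand-pharmacophore element distance, pharmacophore element C3: distance from averaged pharmacophore element to bound ligand; missing value means element absent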;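 for Ligand-pharmacophore element distance, pharmacophore element C4: distance from averaged pharmacophore element to bound ligand; missing value means element absent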;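 for Ligand-pharmacophore element distance, pharmacophore element C5: distance from averaged pharmacophore element to bound ligand; missing value means element absent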
Design: van der Waals contact distance, MASP-2 HIS 483 atom CD2 / van der Waals contact distance, MASP-2 HIS 483 atom NE2 / van der Waals contact distance, SER 654 C to compound atom / van der Waals contact distance, SER 654 O to compound atom / van der Waals contact distance, TRP 655 C to compound atom / van der Waals contact distance, MASP-2 GLY 528 atom CA / van der Waals contact distance TRP 655 atom CZ3 / van der Waals contact distance TRP 655 atom N / van der Waals contact distance TRP 655 atom CE3 / van der Waals contact distance GLY 656 atom C / van der Waals contact distance GLY 656 atom CA / van der Waals contact distance GLY 656 atom O / van der Waals contact distance, MASP-2 TYR 607 atom CD1 / van der Waals contact distance, MASP-2 PRO 606 atom O / d(C3,CA1) / d(CA1,N1)2 / d(H4,O1) / d(H4,O2) / d(O1,O2) / d(CA1,O2) / d(CA6,O1) / d(CA6,O2) / d(CA1,C5) / d(O2,H3) / d(N2,C2) / d(CA5,N2) / d(N2,C4) / d(N2,C6) / d(N2,CA3) / d(N2,O3) / d(O4,H2): unit not given beside the values
Conditions: for Ligand-pharmacophore element distance, pharmacophore element C2 / Ligand-pharmacophore element distance, pharmacophore element C3 / Ligand-pharmacophore element distance, pharmacophore element C4 / Ligand-pharmacophore element distance, pharmacophore element C5 / Ligand-pharmacophore element distance, pharmacophore element C6 / Ligand-pharmacophore element distance, pharmacophore element C7 / Ligand-pharmacophore element distance, pharmacophore element CA1 / Ligand-pharmacophore element distance, pharmacophore element CA2 / Ligand-pharmacophore element distance, pharmacophore element CA3 / Ligand-pharmacophore element distance, pharmacophore element CA4 / Ligand-pharmacophore element distance, pharmacophore element CA5 / Ligand-pharmacophore element distance, pharmacophore element CA6: Table A4-1; for d(C3,CA1) / d(CA1,N1)2 / d(CA1,O1) / d(CA1,O2) / d(H4,O1) / d(H4,O2) / d(O1,O2): Table A5-1 pharmacophore: distance between elements, S2/S1 region; for a(C3, CA1, O1) / a(CA1, O1, O2) / a(O1, O2, H4) / a(N1, CA1, O1) b): Table A6-1 pharmacophore angle; for a(N1, CA1, O1) b): Methyl-amino-pyridine compounds; for Pharmacophore torsion angle a(C3, CA1, O1, H4) / Pharmacophore torsion angle a(H4, O1, O2, H3) / Pharmacophore torsion angle a(H4, O1, O2, N2) / Pharmacophore torsion angle a(N1, CA1, O1, H4) / Pharmacophore torsion angle a(O1, H4, O2, CA1): Table A7-1
Text: This example illustrates the preparation of recombinant MASP-2 protein, based on UniProt O00187, human mannan-binding lectin serine protease 2. Expression constructs for human MASP-2 CCP2-SP and CCP2-SP-6HIS were generated for recombinant expression in E. coli cells.
Typically, crystallization hits were obtained by screening against […] 96-well crystallization reagent kits (GRAS6, GRAS2, Hampton Research; MORPHEUS, Molecular Dimensions; Wizard 1&2 Cryo, Rigaku Reagents) and crystal growth was inspected by optical microscopy. Crystals were used directly or further optimized for X-ray diffraction. Crystals were captured with cryogenic loops and dipped into liquid nitrogen directly or cryoprotected with a 20% glycerol in crystallization formulation before flash-cooling in liquid nitrogen.
Thereafter crystals are transferred once or twice for soaking within the crystallization solution containing the MASP-2 inhibitor.
Crystals were diffracted with synchrotron X-rays of […] and X-ray diffraction datasets were collected at beamlines SSRL BL9-2, BL14-1, BL12-2 as well as ALS sector 5 using Dectris Pilatus and Eiger detectors. Structures were determined by molecular replacement using portions of the structure 1Q3X as search models and partially refined with Buster 2.10.2 or Refmac 5.8. […] When multiple ligand poses were observed, for instance arising from multiple molecules in the asymmetric unit or refined dual poses within the same molecule, only one pose was selected and analyzed.
LigPlot+ calls these ‘nonbonded contacts’ or ‘hydrophobic contacts’. Despite the name, there are atom pairings that include possible H-bonds. Thus, in some instances, the Table A2 also contains H-bond interactions.

[1] = Table A5-2 pharmacophore distance, S3/S4 region
[2] = between pharmacophore elements of the bound compound
[3] = Table A7-2, between pharmacophore elements of the bound compound

Sequence of MASP-2 CCP2-SP (O00187 445-686): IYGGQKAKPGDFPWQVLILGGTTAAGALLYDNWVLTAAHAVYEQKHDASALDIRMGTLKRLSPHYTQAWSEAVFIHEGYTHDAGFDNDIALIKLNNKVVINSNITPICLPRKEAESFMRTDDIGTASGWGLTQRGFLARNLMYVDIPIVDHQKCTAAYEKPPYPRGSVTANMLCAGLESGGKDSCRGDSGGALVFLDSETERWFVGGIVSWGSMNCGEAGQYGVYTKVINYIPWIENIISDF
Sequence of MASP-2 CCP2-SP (O00187 364-432 partner): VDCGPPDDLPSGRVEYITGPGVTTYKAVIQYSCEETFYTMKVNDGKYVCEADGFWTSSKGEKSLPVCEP

In the case of `Cc1nc(N)ccc1CNC(=O)[C@H](C)NC(=O)[C@H]1C[C@H](Cc2cc(Cl)cc(Cl)c2)CN1` [compound 1435, (2R,4S)—N—((S)-1-(((6-Amino-2-methylpyridin-3-yl)methyl)amino)-1-oxopropan-2-yl)-4-(3,5-dichlorobenzyl)pyrrolidine-2-carboxamide Dihydrochloride], the “H-bond distance to MASP-2 ASP 627 atom OD2” value (Table A1 (H-Bonds), ASP 627 OD2) is reported as 3.32, the “H-bond distance to MASP-2 GLY 656 atom N” value (Table A1 (H-Bonds), GLY 656 N) is reported as 3.26 and the “H-bond distance to MASP-2 GLY 656 atom O” value (Table A1 (H-Bonds), GLY 656 O) is reported as 2.79. The “H-bond distance to MASP-2 SER 654 atom O” value (Table A1 (H-Bonds), SER 654 O) was 3.01, the “H-bond distance to MASP-2 SER 657 atom O” value (Table A1 (H-Bonds), SER 657 O) was 2.84 and the “van der Waals contact distance, MASP-2 amino acid atom to compound atom” value (Table A2) was 3.83. For the same molecule, the “van der Waals contact distance, MASP-2 HIS 483 atom CD2” value (Table A2-1) was 3.7, the “van der Waals contact distance, MASP-2 HIS 483 atom NE2” value (Table A2-1) was 3.6 and the “van der Waals contact distance, MASP-2 PHE 529 atom CD2” value (Table A2-3) was 3.61. The “van der Waals contact distance, MASP-2 amino acid atom to compound atom” value (Table A2-7: SER 628 (CB, O, OG)) was 3.67, the “van der Waals contact distance, TRP 655 CA to compound atom” value (Table A2-12) was 3.41 and the “Ligand-pharmacophore element distance, pharmacophore element C2” value was 0. The “Ligand-pharmacophore element distance, pharmacophore element C3” value was 0.15, the “Ligand-pharmacophore element distance, pharmacophore element C4” value was 1.37 and the “Ligand-pharmacophore element distance, pharmacophore element C5” value was 0. For the same molecule, the “Ligand-pharmacophore element distance, pharmacophore element C6” value was 0.38, the “Ligand-pharmacophore element distance, pharmacophore element C7” value was 0 and the “Ligand-pharmacophore element distance, pharmacophore element CA1” value was 0.6. The “Ligand-pharmacophore element distance, pharmacophore element CA2” value was 0.8, the “Ligand-pharmacophore element distance, pharmacophore element CA3” value was 0 and the “Ligand-pharmacophore element distance, pharmacophore element CA4” value was 0. The “Ligand-pharmacophore element distance, pharmacophore element CA5” value was 0, the “Ligand-pharmacophore element distance, pharmacophore element CA6” value was 0 and the “d(C3,CA1)” value was 2.85. The “d(CA1,N1)2” value was 1.38, the “d(CA1,O1)” value was 4.36 and the “d(CA1,O2)” value was 3.86. The “d(H4,O1)” value was 4.37, the “d(H4,O2)” value was 3.79 and the “d(O1,O2)” value was 3.37. For the same molecule, the “d(N2,C4)” value [1] was 8.24, the “d(N2,C4)4” value [1] was 8.24 and the “d(N2,C6)” value [1] was 7.51. For the same molecule, the “d(N2,CA2)” value [1] was 6.00, the “d(O2,H3)” value [1] was 4.33 and the “d(O2,N2)” value [1] was 2.62. The “a(C3, CA1, O1)” value was 149.49, the “a(CA1, O1, O2)” value was 106.19 and the “a(O1, O2, H4)” value was 131.96. The “a(N1, CA1, O1) b)” value was 173.74, the “a(O1, O2, H3)” value (Table A6-2 pharmacophore angle) was 147.24 and the “a(O1, O2, N2)” value (Table A6-2 pharmacophore angle) was 139.75. For the same molecule, the “a(O2, N2, C4)” value (Table A6-2 pharmacophore angle) was 164.21, the “a(O2, N2, C4) 2” value (Table A6-2 pharmacophore angle) was 121.06 and the “a(O2, N2, C6)” value (Table A6-2 pharmacophore angle) was 99.38. For the same molecule, the “a(O2, N2, CA2)” value (Table A6-2 pharmacophore angle) was 157.86, the “Pharmacophore torsion angle a(C3, CA1, O1, H4)” value [2] was 24.44 and the “Pharmacophore torsion angle a(H4, O1, O2, H3)” value [2] was 51.39. For the same molecule, the “Pharmacophore torsion angle a(H4, O1, O2, N2)” value [2] was 136.22, the “Pharmacophore torsion angle a(N1, CA1, O1, H4)” value [2] was 1.43 and the “Pharmacophore torsion angle a(O1, H4, O2, CA1)” value [2] was −83.48. The “Pharmacophore torsion angle a(O1, O2, N2, C6)” value [3] was 137.30 and the “Pharmacophore torsion angle a(O1, O2, N2, CA2)” value [3] was 123.48.
In the case of `Cc1nc(N)ccc1CNC(=O)[C@H](C)NC(=O)[C@H]1C[C@H](Cc2cccc(Cl)c2)CN1.Cl.Cl` [1328_3], the “Ligand-pharmacophore element distance, pharmacophore element C2” value is reported as 0, the “Ligand-pharmacophore element distance, pharmacophore element C3” value is reported as 0.21 and the “Ligand-pharmacophore element distance, pharmacophore element C4” value is reported as 1.76. The “Ligand-pharmacophore element distance, pharmacophore element C5” value was 0, the “Ligand-pharmacophore element distance, pharmacophore element C6” value was 0 and the “Ligand-pharmacophore element distance, pharmacophore element C7” value was 0. For the same molecule, the “Ligand-pharmacophore element distance, pharmacophore element CA1” value was 0.4, the “Ligand-pharmacophore element distance, pharmacophore element CA2” value was 0.48 and the “Ligand-pharmacophore element distance, pharmacophore element CA3” value was 0. For the same molecule, the “Ligand-pharmacophore element distance, pharmacophore element CA4” value was 0, the “Ligand-pharmacophore element distance, pharmacophore element CA5” value was 0 and the “Ligand-pharmacophore element distance, pharmacophore element CA6” value was 0. The “d(C3,CA1)” value was 2.85, the “d(CA1,N1)2” value was 1.38 and the “d(CA1,O1)” value was 4.82. For the same molecule, the “d(CA1,O2)” value was 3.89, the “d(H4,O1)” value was 3.99 and the “d(H4,O2)” value was 2.55. For the same molecule, the “d(O1,O2)” value was 3.40, the “d(N2,C4)” value [1] was 7.95 and the “d(N2,C4)4” value [1] was 7.95. For the same molecule, the “d(N2,CA2)” value [1] was 6.00, the “d(O2,H3)” value [1] was 4.77 and the “d(O2,N2)” value [1] was 2.77. The “a(C3, CA1, O1)” value was 150.74, the “a(CA1, O1, O2)” value was 97.62 and the “a(O1, O2, H4)” value was 122.23. For the same molecule, the “a(N1, CA1, O1) b)” value was 173.57, the “a(O1, O2, H3)” value (Table A6-2 pharmacophore angle) was 151.35 and the “a(O1, O2, N2)” value (Table A6-2 pharmacophore angle) was 139.67. The “a(O2, N2, C4)” value (Table A6-2 pharmacophore angle) was 160.41, the “a(O2, N2, C4) 2” value (Table A6-2 pharmacophore angle) was 106.08 and the “a(O2, N2, CA2)” value (Table A6-2 pharmacophore angle) was 154.95. For the same molecule, the “Pharmacophore torsion angle a(C3, CA1, O1, H4)” value [2] was 57.52, the “Pharmacophore torsion angle a(H4, O1, O2, H3)” value [2] was 47.98 and the “Pharmacophore torsion angle a(H4, O1, O2, N2)” value [2] was 130.71. The “Pharmacophore torsion angle a(N1, CA1, O1, H4)” value [2] was 39.33, the “Pharmacophore torsion angle a(O1, H4, O2, CA1)” value [2] was −87.28 and the “Pharmacophore torsion angle a(O1, O2, N2, CA2)” value [3] was 131.79.
`Cc1nc(N)ccc1CNC(=O)[C@H](C)NC(=O)[C@H]1C[C@H](Cc2ccccc2Br)CN1.O=C(O)C(F)(F)F.O=C(O)C(F)(F)F` [1372_A] was tested, and the “Ligand-pharmacophore element distance, pharmacophore element C2” value was 0, the “Ligand-pharmacophore element distance, pharmacophore element C3” value was 0.09 and the “Ligand-pharmacophore element distance, pharmacophore element C4” value was 1.91. The “Ligand-pharmacophore element distance, pharmacophore element C5” value was 0, the “Ligand-pharmacophore element distance, pharmacophore element C6” value was 0 and the “Ligand-pharmacophore element distance, pharmacophore element C7” value was 0. The “Ligand-pharmacophore element distance, pharmacophore element CA1” value was 0.55, the “Ligand-pharmacophore element distance, pharmacophore element CA2” value was 0.47 and the “Ligand-pharmacophore element distance, pharmacophore element CA3” value was 0. The “Ligand-pharmacophore element distance, pharmacophore element CA4” value was 0, the “Ligand-pharmacophore element distance, pharmacophore element CA5” value was 0 and the “Ligand-pharmacophore element distance, pharmacophore element CA6” value was 0. The “d(C3,CA1)” value was 2.85, the “d(CA1,N1)2” value was 1.38 and the “d(CA1,O1)” value was 4.38. For the same molecule, the “d(CA1,O2)” value was 3.94, the “d(H4,O1)” value was 4.40 and the “d(H4,O2)” value was 3.88. The “d(O1,O2)” value was 3.32, the “d(N2,C4)” value [1] was 6.06 and the “d(N2,C4)4” value [1] was 6.06. The “d(N2,CA2)” value [1] was 5.99, the “d(O2,H3)” value [1] was 2.30 and the “d(O2,N2)” value [1] was 2.66. The “a(C3, CA1, O1)” value was 149.88, the “a(CA1, O1, O2)” value was 106.33 and the “a(O1, O2, H4)” value was 133.23. For the same molecule, the “a(N1, CA1, O1) b)” value was 174.16, the “a(O1, O2, H3)” value (Table A6-2 pharmacophore angle) was 137.15 and the “a(O1, O2, N2)” value (Table A6-2 pharmacophore angle) was 140.15. The “a(O2, N2, C4)” value (Table A6-2 pharmacophore angle) was 159.60, the “a(O2, N2, C4) 2” value (Table A6-2 pharmacophore angle) was 127.51 and the “a(O2, N2, CA2)” value (Table A6-2 pharmacophore angle) was 155.91. The “Pharmacophore torsion angle a(C3, CA1, O1, H4)” value [2] was 25.78, the “Pharmacophore torsion angle a(H4, O1, O2, H3)” value [2] was 99.84 and the “Pharmacophore torsion angle a(H4, O1, O2, N2)” value [2] was 136.36. For the same molecule, the “Pharmacophore torsion angle a(N1, CA1, O1, H4)” value [2] was 5.73, the “Pharmacophore torsion angle a(O1, H4, O2, CA1)” value [2] was −83.68 and the “Pharmacophore torsion angle a(O1, O2, N2, CA2)” value [3] was 129.48.
